These results are taken from patent publication US6608082B1, “Treatment of erectile dysfunction using isoquinoline compound melanocortin receptor ligands” (Lion Bioscience AG, priority 1998, dated 2003).

One experiment has as its target T1, MCR-1 (Homo sapiens, UniProt Q01726).
T1 construct: expressed in transfected cells; host or cells: HEK 293
As to the kind of experiment: Melanocortin receptor binding assay, competition with 125I-HP 467, HEK 293 cells expressing hMCR-1. Conditions: inhibition of binding of 125I-HP 467, HEK 293 cells expressing MCR-1; read-out: MC-1 IC50. A digest of the protocol: (§1)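 Test compounds compete on intact HEK 293 cells carrying hMCR-1 (2×10^4 per tube) or hMCR-4 (4×10^3 per tube), suspended in PBS, 10% calf serum, 1 mM CaCl2.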

The target of a further experiment is T2, MCR-4 (Homo sapiens, UniProt P32245).
T2 construct: expressed in transfected cells; host or cells: HEK 293
In words: Melanocortin receptor binding assay, competition with 125I-HP 467, HEK 293 cells expressing hMCR-4. The following applies: inhibition of binding of 125I-HP 467, HEK 293 cells expressing MCR-4; read-out: MC-4 IC50. The essentials: as §1

pIC50: −log10 of the molar value.

T2 sequence (P32245 whole entry): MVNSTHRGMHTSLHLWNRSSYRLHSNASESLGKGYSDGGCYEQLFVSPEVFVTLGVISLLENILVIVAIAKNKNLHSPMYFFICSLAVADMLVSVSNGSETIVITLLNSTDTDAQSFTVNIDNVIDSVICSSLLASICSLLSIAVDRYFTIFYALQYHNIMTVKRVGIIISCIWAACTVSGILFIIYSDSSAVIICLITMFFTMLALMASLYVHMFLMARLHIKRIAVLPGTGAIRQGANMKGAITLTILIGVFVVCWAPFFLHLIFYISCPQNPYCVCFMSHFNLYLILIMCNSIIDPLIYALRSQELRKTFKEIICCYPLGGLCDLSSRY
T1 sequence (Q01726 whole entry): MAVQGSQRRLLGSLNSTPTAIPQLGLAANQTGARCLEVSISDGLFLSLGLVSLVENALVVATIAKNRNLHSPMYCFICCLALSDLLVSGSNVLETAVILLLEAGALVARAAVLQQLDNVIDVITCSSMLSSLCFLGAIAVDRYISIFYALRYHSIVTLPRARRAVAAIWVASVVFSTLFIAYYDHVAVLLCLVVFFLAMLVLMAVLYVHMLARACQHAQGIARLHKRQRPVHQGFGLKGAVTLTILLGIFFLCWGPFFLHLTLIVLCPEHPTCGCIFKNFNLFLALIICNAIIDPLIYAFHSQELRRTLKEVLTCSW

The pIC50 is the negative decadic logarithm of the IC50, by convention in mol/L. Consider `CCCCCc1ccc(C2C(CN)c3ccccc3CN2CCCC[C@@H](CN)NCC)cc1` (some centres unmarked) [TRG 2415-20], for which the pIC50 was 6.56 on MCR-1 and 5.34 on MCR-4.
Take `CCNc1ccc(C2C(CNCCc3ccccc3)c3ccccc3CN2CCCC(CN)NCCCCNc2ccccc2)cc1` (centres unmarked) [TRG 2419-1]: the results for the negative-log IC50 (pIC50) at MCR-1 and at MCR-4 were 6.96 and 5.52, respectively.
The corresponding values for `CCNc1ccc(C2C(CNCCc3ccccc3)c3ccccc3CN2CCCC(CN)NCCCCNCc2ccccc2)cc1` (centres unmarked) [TRG 2419-3] are 7.31 and 5.67.
Regarding `CCNc1ccc(C2C(CNCCc3ccccc3)c3ccccc3CN2CCCC(CN)NCCCCN(CC)CC)cc1` (centres unmarked) [TRG 2419-4], the values for the pIC50 at MCR-1 and on MCR-4 were 7.24 and 4.84, respectively.
In the case of `CCNc1ccc(C2C(CN)c3ccccc3CN2CCCC(CN)NCCCCNCc2ccccc2)cc1` (centres unmarked) [TRG 2419-6], the pIC50 at MCR-1 was 7.09; at MCR-4 it was 5.19.
The like results for `CCNc1ccc(C2C(CN)c3ccccc3CN2CCCC(CN)NCCCCN(CC)CC)cc1` (centres unmarked) [TRG 2419-7] were, in that order, 6.85 and 5.00.
Turning to `CCNc1ccc(C2C(CN)c3ccccc3CN2CCCC(CN)NCCCCO)cc1` (centres unmarked) [TRG 2419-8], the negative-log IC50 (pIC50) at MCR-1 is 5.96; at MCR-4 it was 5.16.
On to `CCNc1ccc(C2C(CN)c3ccccc3CN2CCCC(CN)NCCCCNc2ccccc2)cc1` (centres unmarked) [TRG 2419-9], for which the pIC50 at MCR-1 was 6.62; on MCR-4, 5.00.
The corresponding values for `CCNc1ccc(C2C(CN)c3ccccc3CN2CCCC(CN)NCCCCNC(C)(C)C)cc1` (centres unmarked) [TRG 2419-10] are 7.03 and 5.36.
The like results for `CCNc1ccc(C2C(CN)c3ccccc3CN2CCCC(CN)NCCCCN)cc1` (centres unmarked) [TRG 2419-11] were, in that order, 6.70 and 4.74.
For `CCNc1ccc(C2C(CN)c3ccccc3CN2CCCC(CN)NCCCCNCCc2ccccc2)cc1` (centres unmarked) [TRG 2419-12], the results for the negative-log IC50 (pIC50) at MCR-1 and on MCR-4 were 7.14 and 4.78, respectively.
Take `CCNc1ccc(C2C(CN)c3ccccc3CN2CCCC(CN)NCCCCN2CCCCC2)cc1` (centres unmarked) [TRG 2419-13]: the figures for the negative logarithm of the IC50 (pIC50) on MCR-1 and at MCR-4 were 7.14 and 5.60, respectively.
For the molecule `CCNc1ccc(C2C(CNCCc3ccccc3)c3ccccc3CN2CCCC(CN)NCCCCCNC(C)C)cc1` (centres unmarked) [TRG 2420-1], the negative-log IC50 (pIC50) at MCR-1 is 7.34; on MCR-4 it was 5.82.
The corresponding values for `CCNc1ccc(C2C(CNCCc3ccccc3)c3ccccc3CN2CCCC(CN)NCCCCCNCc2ccccc2)cc1` (centres unmarked) [TRG 2420-2] are 7.12 and 5.39.
The corresponding values for `CCNc1ccc(C2C(CNCCc3ccccc3)c3ccccc3CN2CCCC(CN)NCCCCCN(CC)CC)cc1` (centres unmarked) [TRG 2420-3] are 7.52 and 5.08.
Turning to `CCNc1ccc(C2C(CNCCc3ccccc3)c3ccccc3CN2CCCC(CN)NCCCCCNCCc2ccccc2)cc1` (centres unmarked) [TRG 2420-4], the negative logarithm of the IC50 (pIC50) on MCR-1 was 7.17; on MCR-4 it was 5.38.
The corresponding values for `CCNc1ccc(C2C(CNCCc3ccccc3)c3ccccc3CN2CCCC(CN)NCC2CC2CNC(C)C)cc1` (centres unmarked) [TRG 2420-5] are 7.37 and 5.01.
Turning to `CCNc1ccc(C2C(CNCCc3ccccc3)c3ccccc3CN2CCCC(CN)NCC2CC2CNCc2ccccc2)cc1` (centres unmarked) [TRG 2420-6], the pIC50 at MCR-1 is 6.99; on MCR-4 it was 5.29.
Consider `CCNc1ccc(C2C(CNCCc3ccccc3)c3ccccc3CN2CCCC(CN)NCC2CC2CN(CC)CC)cc1` (centres unmarked) [TRG 2420-7], for which the negative logarithm of the IC50 (pIC50) is 7.20 on MCR-1 and 5.74 at MCR-4.
The corresponding values for `CCNc1ccc(C2C(CNCCc3ccccc3)c3ccccc3CN2CCCC(CN)NCC2CC2CNCCc2ccccc2)cc1` (centres unmarked) [TRG 2420-8] are 6.68 and 5.63.
The like results for `CCNc1ccc(C2C(CNCCc3ccccc3)c3ccccc3CN2CCCC(CN)NCCOCCNC(C)C)cc1` (centres unmarked) [TRG 2420-9] were, in that order, 7.40 and 5.49.
The corresponding values for `CCNc1ccc(C2C(CNCCc3ccccc3)c3ccccc3CN2CCCC(CN)NCCOCCNCc2ccccc2)cc1` (centres unmarked) [TRG 2420-10] are 7.26 and 6.03.
Consider `CCNc1ccc(C2C(CNCCc3ccccc3)c3ccccc3CN2CCC[C@@H](CN)NCCOCCN(CC)CC)cc1` (some centres unmarked) [TRG 2420-11], for which the negative logarithm of the IC50 (pIC50) on MCR-1 is 7.55; at MCR-4, 5.33.
For the molecule `CCNc1ccc(C2C(CNCCc3ccccc3)c3ccccc3CN2CCCC(CN)NCCOCCNCCc2ccccc2)cc1` (centres unmarked) [TRG 2420-12], the pIC50 at MCR-1 was 7.10; at MCR-4, 5.82.
The corresponding values for `CCNc1ccc(C2C(CNCCc3ccccc3)c3ccccc3CN2CCCC(CN)NCc2ccccc2CNC(C)C)cc1` (centres unmarked) [TRG 2420-13] are 7.19 and 6.17.
The like results for `CCNc1ccc(C2C(CNCCc3ccccc3)c3ccccc3CN2CCCC(CN)NCc2ccccc2CNCc2ccccc2)cc1` (centres unmarked) [TRG 2420-14] were, in that order, 6.87 and 6.54.
The corresponding values for `CCNc1ccc(C2C(CNCCc3ccccc3)c3ccccc3CN2CCCC(CN)NCc2ccccc2CN(CC)CC)cc1` (centres unmarked) [TRG 2420-15] are 7.15 and 5.86.
Take `CCNc1ccc(C2C(CNCCc3ccccc3)c3ccccc3CN2CCCC(CN)NCc2ccccc2CNCCc2ccccc2)cc1` (centres unmarked) [TRG 2420-16]: the figures for the pIC50 at MCR-1 and at MCR-4 were 6.79 and 5.92, respectively.
For the molecule `CCNc1ccc(C2C(CN)c3ccccc3CN2CCCC(CN)NCC2CC2CNC(C)C)cc1` (centres unmarked) [TRG 2420-25], the figures for the pIC50 on MCR-1 and at MCR-4 were 6.99 and 5.32, respectively.
The like results for `CCNc1ccc(C2C(CN)c3ccccc3CN2CCCC(CN)NCC2CC2CNCc2ccccc2)cc1` (centres unmarked) [TRG 2420-26] were, in that order, 7.03 and 5.30.
The corresponding values for `CCNc1ccc(C2C(CN)c3ccccc3CN2CCCC(CN)NCC2CC2CN(CC)CC)cc1` (centres unmarked) [TRG 2420-27] are 7.40 and 5.38.
Consider `CCNc1ccc(C2C(CN)c3ccccc3CN2CCCC(CN)NCC2CC2CNCCc2ccccc2)cc1` (centres unmarked) [TRG 2420-28], for which the negative logarithm of the IC50 (pIC50) on MCR-1 was 6.69; on MCR-4, 5.39.
On to `NCC(CCCCN1Cc2ccccc2C(CNCCc2ccccc2)C1c1cc(C(F)(F)F)cc(C(F)(F)F)c1)NCc1ccccc1` (centres unmarked) [TRG 2421-1], for which the pIC50 on MCR-1 was 5.38; at MCR-4 it was 5.75.
Take `NCC(CCCCN1Cc2ccccc2C(CNCCc2ccccc2)C1c1cc(C(F)(F)F)cc(C(F)(F)F)c1)NCc1ccc(Br)cc1` (centres unmarked) [TRG 2421-3]: the pIC50 at MCR-1 was 5.31; at MCR-4, 5.02.
On to `COc1ccc(CNC(CN)CCCCN2Cc3ccccc3C(CNCCc3ccccc3)C2c2cc(C(F)(F)F)cc(C(F)(F)F)c2)cc1` (centres unmarked) [TRG 2421-4], for which the pIC50 on MCR-1 is 5.59; on MCR-4 it was 5.55.
The like results for `NCC(CCCCN1Cc2ccccc2C(CNCCc2ccccc2)C1c1cc(C(F)(F)F)cc(C(F)(F)F)c1)NCc1ccc(-c2ccccc2)cc1` (centres unmarked) [TRG 2421-5] were, in that order, 4.95 and 5.03.
The corresponding values for `NCC(CCCCN1Cc2ccccc2C(CNCCc2ccc(O)cc2)C1c1cc(C(F)(F)F)cc(C(F)(F)F)c1)NCc1ccccc1` (centres unmarked) [TRG 2421-6] are 5.65 and 6.12.
The corresponding values for `Cc1ccc(CNC(CN)CCCCN2Cc3ccccc3C(CNCCc3ccc(O)cc3)C2c2cc(C(F)(F)F)cc(C(F)(F)F)c2)cc1` (centres unmarked) [TRG 2421-7] are 5.50 and 5.34.
Consider `COc1ccc(CNC(CN)CCCCN2Cc3ccccc3C(CNCCc3ccc(O)cc3)C2c2cc(C(F)(F)F)cc(C(F)(F)F)c2)cc1` (centres unmarked) [TRG 2421-9], for which the pIC50 is 5.82 at MCR-1 and 5.76 on MCR-4.
In the case of `NCC(CCCCN1Cc2ccccc2C(CNCCc2ccc(O)cc2)C1c1cc(C(F)(F)F)cc(C(F)(F)F)c1)NCc1ccc(-c2ccccc2)cc1` (centres unmarked) [TRG 2421-10], the results for the pIC50 at MCR-1 and on MCR-4 were 5.32 and 5.04, respectively.
The corresponding values for `COc1ccc(CCNCC2c3ccccc3CN(CCCCC(CN)NCc3ccc(C)cc3)C2c2cc(C(F)(F)F)cc(C(F)(F)F)c2)cc1` (centres unmarked) [TRG 2421-12] are 5.59 and 5.85.
With `COc1ccc(CCNCC2c3ccccc3CN(CCCCC(CN)NCc3ccc(Br)cc3)C2c2cc(C(F)(F)F)cc(C(F)(F)F)c2)cc1` (centres unmarked) [TRG 2421-13], the results for the negative-log IC50 (pIC50) on MCR-1 and at MCR-4 were 5.36 and 5.09, respectively.
With `COc1ccc(CCNCC2c3ccccc3CN(CCCCC(CN)NCc3ccc(OC)cc3)C2c2cc(C(F)(F)F)cc(C(F)(F)F)c2)cc1` (centres unmarked) [TRG 2421-14], the pIC50 was 5.46 at MCR-1 and 5.77 on MCR-4.
For `COc1ccc(CCNCC2c3ccccc3CN(CCCCC(CN)NCc3ccc(-c4ccccc4)cc3)C2c2cc(C(F)(F)F)cc(C(F)(F)F)c2)cc1` (centres unmarked) [TRG 2421-15], the negative logarithm of the IC50 (pIC50) on MCR-1 is 5.11; at MCR-4 it was 5.12.
For the molecule `COc1ccc(CCNCC2c3ccccc3CN(CCCCC(CN)NCc3ccccc3)C2c2cc(C(F)(F)F)cc(C(F)(F)F)c2)cc1OC` (centres unmarked) [TRG 2421-16], the negative logarithm of the IC50 (pIC50) is 5.62 at MCR-1 and 6.44 at MCR-4.
The corresponding values for `COc1ccc(CCNCC2c3ccccc3CN(CCCCC(CN)NCc3ccc(Br)cc3)C2c2cc(C(F)(F)F)cc(C(F)(F)F)c2)cc1OC` (centres unmarked) [TRG 2421-18] are 5.32 and 5.87.
For the molecule `COc1ccc(CNC(CN)CCCCN2Cc3ccccc3C(CNCCc3ccc(OC)c(OC)c3)C2c2cc(C(F)(F)F)cc(C(F)(F)F)c2)cc1` (centres unmarked) [TRG 2421-19], the values for the negative logarithm of the IC50 (pIC50) at MCR-1 and at MCR-4 were 5.79 and 6.28, respectively.
The like results for `COc1ccc(CCNCC2c3ccccc3CN(CCCCC(CN)NCc3ccc(-c4ccccc4)cc3)C2c2cc(C(F)(F)F)cc(C(F)(F)F)c2)cc1OC` (centres unmarked) [TRG 2421-20] were, in that order, 5.37 and 5.71.
The corresponding values for `CCOc1ccc(CCNCC2c3ccccc3CN(CCCCC(CN)NCc3ccccc3)C2c2cc(C(F)(F)F)cc(C(F)(F)F)c2)cc1` (centres unmarked) [TRG 2421-21] are 5.59 and 5.40.
